Where two headings read alike, the source gives them in different places.
Tests used:
VIM-2 [1] = target: T1, VIM-2 (Escherichia coli, UniProt Q5U7L7); test: Enzymatic metallo-β-lactamase assay on purified VIM-2; type: biochemical; settings: for Ki: approximated from Dixon plots (1/v vs [I]) at one constant substrate concentration, ± SE, read-out: Estimated inhibition constant Ki VIM-2; for logIC50 VIM-2: log of IC50, ± SEM of logIC50; for IC50: purified enzyme 1 nM, nitrocefin 15 μM, pH 7.2, 25 °C
Experimental: (§1) A few inhibitors were tested up to 1600 μM to ensure nearly complete inhibition. Solutions of 100 μL consisting of buffer, purified enzyme (1 nM for GIM-1 and VIM-2, 5 nM for NDM-1), inhibitor and reporter substrate nitrocefin (15 μM for VIM-2, 2 μM for GIM-1) or imipenem (30 μM for NDM-1) were incubated in triplicates on a 96 well plate for 5 min at 25 °C. Buffer solution consisted of 50 mM HEPES pH 7.2, 50 μM ZnSO4 and 0.4 mg/ml bovine serum albumine. Inhibitors were dissolved in DMSO but diluted to assure <2% DMSO in measured assay. Absorbance was measured at 482 nm (nitrocefin) and 300 nm (imipenem) on a SpectraMax M4 spectrophotometer. The initial velocity at each inhibitor concentration was analyzed in GraphPad Prism v9.3.1 and fitted to dose-response curves by non-linear regression (log [inhibitor] vs response) used to calculate IC50 (Supplementary Tables S2–5).

GIM-1 [2] = target: T2, GIM-1 (Pseudomonas aeruginosa, UniProt Q704V1); test: Enzymatic metallo-β-lactamase assay on purified GIM-1; type: biochemical; settings: for logIC50 GIM-1: log of IC50, ± SEM of logIC50; for IC50: purified enzyme 1 nM, nitrocefin 2 μM, pH 7.2, 25 °C
Experimental: as §1

NDM-1 [3] = target: T3, NDM-1 (Klebsiella pneumoniae, UniProt C7C422); test: Enzymatic metallo-β-lactamase assay on purified NDM-1; type: biochemical; settings: for Ki: approximated from Dixon plots (1/v vs [I]) at one constant substrate concentration, ± SE, read-out: Estimated inhibition constant Ki NDM-1; for logIC50 NDM-1: log of IC50, ± SEM of logIC50; for IC50: purified enzyme 5 nM, imipenem 30 μM, pH 7.2, 25 °C
Experimental: as §1

MTT cytotoxicity assay = type: cell-based; settings: human, HepG2 cells
Experimental: Cytotoxic activity of the compounds was measured through the MTT colorimetric assay as previously described[60] using the Colorimetric (MTT) Kit for Cell Survival and Proliferation (Merck/Millipore; Darmstadt, Germany). HepG2 cells (human hepatocellular carcinoma cell line) were kept in penicillin/streptomycin-free medium overnight and then they were treated with the compounds for 24 h. Subsequently, the MTT reagent was added to the cells and after 3 h of incubation, MTT-derived formazan crystals were solubilized in acidified isopropanol (0.1 mL isopropanol with 0.04 N HCl). Absorbance was measured with multiscan spectrophotometer (Thermo Fisher Scientific) at 530 nm test and 630 nm reference wavelengths. Cell viability was expressed as the percentage of viable, untreated cells. CC50 values were determined with GraphPad Prism software (v9.3.1) and adjusted to dose-response curves by non-linear regression (Supplementary Table S7).
8. Cytotoxocity against HepG2 cells
Table S7. CC50 values and viability curves of metallo-β-lactamase inhibitors tested on HepG2 […]
cells. […]
range. Data are shown as % via bility values ± SEM (n=4). Calculations were done using […]
Inhibitors CC50 (μM) HepG2 […]

[4] = Long term stability in buffer with 2.5% DMSO (LC-MS); type: physicochemical; settings: 20 mM KPO4, 0.1 mM ZnCl2, pH 7.0 + 2.5% DMSO; LC-MS 254 nm
Description: Reagents, reactants, solvents and drying agents for synthesis, work-up and purification were purchased from commercial vendors (Sigma-Aldrich, VWR, Merck, Fluorochem, Thermo Fisher Scientific, Solveco), and if not stated otherwise they were used without further purification. Reactions and long term stability of the final compounds in buffer were monitored using LC-MS (Agilent 1260 Infinity II) equipped with an ESI-Q detector (Infinitylab LC-MSD) using Agilent InfinityLab Poroshell 120 C18 columns (2.7 μm, ϕ 2.1 mm L 50 mm or 2.7 μm, ϕ 4.6 mm L 50 mm). The intermediates were purified using VWR silica gel 60 (40–63 μm) with a Biotage Isolera One flash column chromatography instrument. The final products were purified with preparative RP-HPLC (VWR LaPrep P110) with single wavelength detection (254 nm), using a Kinetex C8 column (5 μm, 100 Å, ϕ 21.2 mm L 250 mm) and gradients of CH3CN/H2O + 0.1% formic acid as the mobile phase at a 10 mL/min flow rate. Analytical HPLC data were acquired on a VWR LaChrome ELITE system using an ACE3 C8 (3 μm, 300 Å, ϕ 3.0 mm L 100 mm) or a Kinetex C18 columns (5 μm, 100 Å, ϕ 3.0 mm L 150 mm). NMR spectra were recorded on a Varian Agilent MR400-DD2 400 MHz spectrometer equipped with a OneNMR probe, Bruker Avance Neo 500 MHz spectrometer equipped with a cryogenic TXO probe, or a Bruker Avance Neo 600 MHz spectrometer equipped with a TCI cryogenic probe. The chemical shifts are reported using the residual solvent signal as an indirect reference to TMS.
4. Long term stability of the final compounds in buffer with 2.5% DMSO
The long term stability of the final compounds in buffer (20 mM KPO4, 0.1 mM ZnCl2, pH 7.0 + 2.5% DMSO) were monitored using LC-MS (Agilent 1260 Infinity II) equipped with an ESI-Q detector (Infinitylab LC-MSD) using Agilent InfinityLab Poroshell 120 C18 column (2.7 μm, ϕ 4.6 mm L 50 mm) at 254 nm with a 7 min long gradient method (5% to 95% CH3CN) of CH3CN/H2O + 0.1% formic acid as the mobile phase at a 1.0 mL/min flow rate. The samples were measured right after dissolving them in buffer, and after 1 month of keeping the same samples dissolved in the same buffer. The main peaks (> 95%) and impurities with > 1% are […]
Figure S14. Compound 5a right after dissolving it in buffer.
Figure S15. Compound 5a kept in buffer for 1 month. […]

15N-labeled NDM-1 = target: T4, 15N-labeled NDM-1 (Klebsiella pneumoniae, UniProt C7C422); test: 1H,15N-HSQC titration of NDM-1; type: binding; settings: 10 equivalents of compound, 600 MHz, pH 7.0, 25 °C
T4 construct: made in house
Experimental: The ^1H, ^15N-HSQC spectra for the titration experiments were recorded on a Bruker Avance Neo 600 MHz spectrometer equipped with a 5 mm TCI cryogenic probe at 25 °C. The U-[^15N]-labeled VIM-2 was prepared in a buffer of 20 mM KPO4, 0.1 mM ZnCl2, at pH 7.0, containing 85% H2O/15% D2O at a concentration of 0.25 mM. The U-[^15N]-labeled NDM-1 was used in a buffer of 20 mM HEPES, 0.1 mM ZnCl2, at pH 7.0, containing 85% H2O/15% D2O at a concentration of 0.25 mM. The ligands 5d, 5g, 5i, 5j (for VIM-2 titrations) and 5 f (for NDM-1 titration) were dissolved in the same buffer as the corresponding enzymes. Spectra were recorded using solvent suppression, 1024 points in f1, 16 transients, 512 increments in f2 and a relaxation delay of 0.2 s. The titrations were carried out with 0, 0.25, 0.50, 1.00, 1.50, 2.25, 3.00, 4.00, 5.00, 7.00, 10.0 equivalents of the inhibitors. […]
(§2) Chemical shift perturbation values (CSP, ΔδNH) were calculated as the weighted average of
(§3) the chemical shift changes in f1 (ΔδN) and f2 (ΔδH) dimensions using the following equation 8:
∆δ = √∆δ 2 + ( N ); R = 6.5 […]

15N-labelled VIM-2 = target: T5, 15N-labelled VIM-2 (Escherichia coli, UniProt Q5U7L7); test: 1H,15N-HSQC titration of VIM-2; type: binding; settings: 10 equivalents of compound, 600 MHz, pH 7.0, 25 °C
T5 construct: made in house
Experimental: The ^1H, ^15N-HSQC spectra for the titration experiments were recorded on a Bruker Avance Neo 600 MHz spectrometer equipped with a 5 mm TCI cryogenic probe at 25 °C. The U-[^15N]-labeled VIM-2 was prepared in a buffer of 20 mM KPO4, 0.1 mM ZnCl2, at pH 7.0, containing 85% H2O/15% D2O at a concentration of 0.25 mM. The U-[^15N]-labeled NDM-1 was used in a buffer of 20 mM HEPES, 0.1 mM ZnCl2, at pH 7.0, containing 85% H2O/15% D2O at a concentration of 0.25 mM. The ligands 5d, 5g, 5i, 5j (for VIM-2 titrations) and 5 f (for NDM-1 titration) were dissolved in the same buffer as the corresponding enzymes. Spectra were recorded using solvent suppression, 1024 points in f1, 16 transients, 512 increments in f2 and a relaxation delay of 0.2 s. The titrations were carried out with 0, 0.25, 0.50, 1.00, 1.50, 2.25, 3.00, 4.00, 5.00, 7.00, 10.0 equivalents of the inhibitors.
Figure S47. Superimposition of the 1H,15N-HSQC spectrum (600 MHz, pH 7.0, 25 °C) of
VIM-2 in the absence (blue) and in the presence (green) of 10 molar equivalent of compound
5j. Buffer: 20 mM KPO4, 0.1 mM ZnCl2, with 15% D2O.
as §2, §3
∆δ = √∆δ 2 + ( N ); R = 6.5
Figure S48. Linear regression of the chemical shift perturbations of compound 5g (IC50 =
12 μM) as a function of the chemical shift perturbations of compounds 5c (yellow circle), 5d
(grey square), 5i (green triangle) and 5j (blue circle) for VIM-2. The data of the studied […]

GIM-1 [5] = target: T2, GIM-1; test: Enzymatic metallo-β-lactamase assay on purified GIM-1; type: biochemical; settings: approximated from Dixon plots (1/v vs [I]) at one constant substrate concentration; ± SE; read-out: Estimated inhibition constant Ki GIM-1
VIM-2 [6] = target: T1, VIM-2; settings: cited from earlier work
NDM-1 [7] = target: T3, NDM-1; settings: read-out: IC50 against NDM-1; cited from earlier work
[8] = read-out: Kd, affinity to zinc ions; cited from earlier work
[9] = HepG2, MTT, read-out: CC50 (in viability curve)
[10] = MTT, 0.0025 mM - 1mM concentration range, read-out: Cytotoxicity CC50 HepG2

T3 sequence (C7C422 29-270, looked up, species assumed): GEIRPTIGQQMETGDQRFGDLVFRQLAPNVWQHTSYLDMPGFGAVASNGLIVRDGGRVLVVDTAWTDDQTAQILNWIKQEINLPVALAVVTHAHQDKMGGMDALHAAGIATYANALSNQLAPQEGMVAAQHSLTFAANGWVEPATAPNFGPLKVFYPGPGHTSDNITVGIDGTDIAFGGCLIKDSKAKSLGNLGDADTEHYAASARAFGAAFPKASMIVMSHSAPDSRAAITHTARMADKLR
T2 sequence (Q704V1 entry or part of it): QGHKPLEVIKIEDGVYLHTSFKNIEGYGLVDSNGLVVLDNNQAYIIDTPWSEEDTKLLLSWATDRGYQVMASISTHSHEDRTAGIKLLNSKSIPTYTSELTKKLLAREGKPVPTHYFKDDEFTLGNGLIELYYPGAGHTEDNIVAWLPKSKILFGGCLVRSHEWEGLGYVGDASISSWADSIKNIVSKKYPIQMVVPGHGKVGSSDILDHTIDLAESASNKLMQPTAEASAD
T4 sequence (C7C422 29-270, looked up): as the sequence (C7C422 29-270, looked up, species assumed) above

| Structure (SMILES) | Ki (VIM-2 [1]) [µM] | logIC50 VIM-2 (VIM-2 [1]) [μM] | IC50 (VIM-2 [1]) [µM] | logIC50 GIM-1 (GIM-1 [2]) [μM] | IC50 (GIM-1 [2]) [µM] | Ki (NDM-1 [3]) [µM] | logIC50 NDM-1 (NDM-1 [3]) | IC50 (NDM-1 [3]) [µM] | CC50 at 24 h (MTT cytotoxicity assay; [9]) [µM] | CC50 at 24 h (MTT cytotoxicity assay; [10]) [µM] | main peak Area% kept in buffer for 1 month [4] [%] | main peak Area% right after dissolving in buffer [4] [%] | Mean chemical shift perturbation, NDM-1 (15N-labeled NDM-1) [ppm] | Mean chemical shift perturbation, VIM-2 (15N-labelled VIM-2) [ppm] | Ki (GIM-1 [5]) [µM] | IC50 (VIM-2 [6]; read-out: IC50 against VIM-2) [µM] | IC50 (NDM-1 [7]) [µM] | Kd [8] [µM] | IC50 (VIM-2 [6]; Table S8, ref 35 (SI), read-out: IC50 VIM-2) [µM] | IC50 (VIM-2 [6]; read-out: IC50 for VIM-2) [µM] |
| --- | --- | --- | --- | --- | --- | --- | --- | --- | --- | --- | --- | --- | --- | --- | --- | --- | --- | --- | --- | --- |
| O=C(NC(c1ccccc1O)P(=O)(O)O)c1csc2c1CCCC2 (centres unmarked) [5f] | 40 ± 2 | 1.68 ± 0.05 | 48 | 1.71 ± 0.10 | 52 | 128 ± 58 | 1.48 ± 0.03 log10(IC50/μM) | 30 | 4800 | 4800 | 95.90 | 95.67 | 0.05 |  |  |  |  |  |  |  |
| O=C(Cc1cccs1)NC(c1ccccc1O)P(=O)(O)O (centres unmarked) [5i] | 76 ± 8 | 1.58 ± 0.08 | 38 | 2.28 ± 0.52 | 189 | 1070 ± 360 | 1.94 ± 0.08 log10(IC50/μM) | 87 | 1500 | 1490 | 97.58 | 96.45 |  | 0.04 | 348 ± 28 |  |  |  |  |  |
| O=C(O)CN(CC(=O)O)CP(=O)(O)O [N-(phosphonomethyl)-iminodiacetic acid] |  |  |  |  |  |  |  |  |  |  |  |  |  |  |  | 0.68 | 0.91 | 0.056 |  |  |
| NCCN[C@H]1CC[C@H](CC(=O)N[C@H]2Cc3cccc(C(=O)O)c3OB2O)CC1 [taniborbactam] |  |  |  |  |  |  |  |  |  |  |  |  |  |  |  |  |  |  | 0.002 | 0.04 |

— PMC12009420, “Dynamically chiral phosphonic acid-type metallo-β-lactamase inhibitors” (Communications Chemistry, 2025)
